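Protocol summary: plate cells (96-well), add compound at 5 concentrations, incubate 48 h, interpolate endpoints linearly. The concentration for 50% growth inhibition is given as GI50.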 Calls of active or inactive are those of the source. Rule as the data show it: active = GI50 up to about 1.1 µM and inactive = higher.
Assays:
Assay in all cases: DTP human tumour cell line panel, 48 h
A498 = tested on: A498
SK-OV-3 = tested on: SK-OV-3
A549 = tested on: A549
HCC 2998 = tested on: HCC 2998
U-251 = tested on: U-251
M14 = tested on: M14
EKVX = tested on: EKVX
HCT-116 = tested on: HCT-116
SK-MEL-5 = tested on: SK-MEL-5
HOP-62 = tested on: HOP-62
HOP-92 = tested on: HOP-92
LOX IMVI = tested on: LOX IMVI
MDA-MB-435 = tested on: MDA-MB-435
HCT-15 = tested on: HCT-15
NCI-H460 = tested on: NCI-H460
SN12C = tested on: SN12C
SNB-75 = tested on: SNB-75
OVCAR-5 = tested on: OVCAR-5
HT-29 = tested on: HT-29
RPMI-8226 = tested on: RPMI-8226
PC-3 = tested on: PC-3
ACHN = tested on: ACHN
HL-60 = tested on: HL-60
T47D = tested on: T47D
786-0 = tested on: 786-0
NCI/ADR-RES = tested on: NCI/ADR-RES
BT-549 = tested on: BT-549
COLO 205 = tested on: COLO 205
Malme-3M = tested on: Malme-3M
K562 = tested on: K562
NCI-H23 = tested on: NCI-H23
CAKI-1 = tested on: CAKI-1
CCRF-CEM = tested on: CCRF-CEM
SK-MEL-2 = tested on: SK-MEL-2
SF-295 = tested on: SF-295
RXF 393 = tested on: RXF 393
UO-31 = tested on: UO-31
MDA-N = tested on: MDA-N
SF-268 = tested on: SF-268
Hs-578T = tested on: Hs-578T
SNB-19 = tested on: SNB-19
OVCAR-3 = tested on: OVCAR-3
SK-MEL-28 = tested on: SK-MEL-28
MDA-MB-231 = tested on: MDA-MB-231
MCF7 = tested on: MCF7
SR = tested on: SR
UACC-257 = tested on: UACC-257
NCI-H226 = tested on: NCI-H226
OVCAR-4 = tested on: OVCAR-4
SW-620 = tested on: SW-620
NCI-H522 = tested on: NCI-H522
UACC-62 = tested on: UACC-62
IGROV-1 = tested on: IGROV-1
MOLT-4 = tested on: MOLT-4
DU-145 = tested on: DU-145
KM12 = tested on: KM12
OVCAR-8 = tested on: OVCAR-8
TK-10 = tested on: TK-10
SF-539 = tested on: SF-539

## O=C1O[C@H]2[C@H](O)[C@@H](OC(=O)c3cc(O)c(O)c4c3[C@@H]3C1=CC(=O)C(O)(O)C3(O)O4)[C@H](OC(=O)c1cc(O)c(O)c(O)c1)O[C@@H]2CO (stereo partly specified) [FUROSIN]
A498
  GI50: > 100 µM (inactive)
SK-OV-3
  GI50: 86.5 µM (inactive)
A549
  GI50: 79.1 µM (inactive)
HCC 2998
  GI50: > 100 µM (inactive)
U-251
  GI50: > 100 µM (inactive)
M14
  GI50: 62.2 µM (inactive)
EKVX
  GI50: > 100 µM (inactive)
HCT-116
  GI50: 74.8 µM (inactive)
SK-MEL-5
  GI50: 42.5 µM (inactive)
HOP-62
  GI50: > 100 µM (inactive)
HOP-92
  GI50: 42 µM (inactive)
LOX IMVI
  GI50: 48 µM (inactive)
MDA-MB-435
  GI50: 39.5 µM (inactive)
HCT-15
  GI50: 36.4 µM
NCI-H460
  GI50: 64.1 µM (inactive)
SN12C
  GI50: > 100 µM (inactive)
SNB-75
  GI50: 78.9 µM (inactive)
OVCAR-5
  GI50: > 100 µM (inactive)
HT-29
  GI50: 49.1 µM (inactive)
RPMI-8226
  GI50: > 100 µM (inactive)
PC-3
  GI50: > 100 µM (inactive)
ACHN
  GI50: 41.6 µM (inactive)
HL-60
  GI50: 28.2 µM (inactive)
T47D
  GI50: > 100 µM (inactive)
786-0
  GI50: > 100 µM (inactive)
NCI/ADR-RES
  GI50: > 100 µM (inactive)
BT-549
  GI50: > 100 µM (inactive)
COLO 205
  GI50: 99.3 µM (inactive)
Malme-3M
  GI50: > 100 µM (inactive)
K562
  GI50: 38.1 µM (inactive)
NCI-H23
  GI50: > 100 µM (inactive)
CAKI-1
  GI50: > 100 µM (inactive)
CCRF-CEM
  GI50: 17.9 µM (inactive)
SK-MEL-2
  GI50: > 100 µM (inactive)
SF-295
  GI50: 71.6 µM (inactive)
RXF 393
  GI50: > 100 µM (inactive)
UO-31
  GI50: 57.1 µM (inactive)
MDA-N
  GI50: 33.6 µM (inactive)
SF-268
  GI50: 76.4 µM (inactive)
Hs-578T
  GI50: > 100 µM (inactive)
SNB-19
  GI50: > 100 µM (inactive)
OVCAR-3
  GI50: 33.2 µM (inactive)
SK-MEL-28
  GI50: > 100 µM (inactive)
MDA-MB-231
  GI50: > 100 µM (inactive)
MCF7
  GI50: > 100 µM (inactive)
SR
  GI50: 32.1 µM (inactive)
UACC-257
  GI50: > 100 µM (inactive)
NCI-H226
  GI50: > 100 µM (inactive)
OVCAR-4
  GI50: > 100 µM (inactive)
SW-620
  GI50: > 100 µM (inactive)
NCI-H522
  GI50: 45.4 µM (inactive)
UACC-62
  GI50: 75.7 µM (inactive)
IGROV-1
  GI50: > 100 µM (inactive)
MOLT-4
  GI50: > 100 µM (inactive)
DU-145
  GI50: > 100 µM (inactive)
KM12
  GI50: 26.7 µM (inactive)
OVCAR-8
  GI50: 79.1 µM (inactive)

## C=C1C(=O)[C@@]23CC[C@@H]4[C@@]5(C)CCC[C@@]4(OC5=O)[C@@]2(C)CC[C@@H]1C3
A498
  GI50: 3.24 µM (inactive)
SK-OV-3
  GI50: 9.23 µM (inactive)
A549
  GI50: 3.28 µM (inactive)
HCC 2998
  GI50: 2.19 µM (inactive)
U-251
  GI50: 1.97 µM (inactive)
M14
  GI50: 2.17 µM (inactive)
EKVX
  GI50: 3.15 µM (inactive)
HCT-116
  GI50: 1.13 µM (inactive)
SK-MEL-5
  GI50: 0.962 µM (active)
TK-10
  GI50: 1.11 µM (active)
HOP-62
  GI50: 2.84 µM (inactive)
HOP-92
  GI50: 4.48 µM (inactive)
LOX IMVI
  GI50: 0.422 µM (active)
MDA-MB-435
  GI50: 1.83 µM (inactive)
HCT-15
  GI50: 0.67 µM
NCI-H460
  GI50: 1.41 µM (inactive)
SN12C
  GI50: 3.3 µM (inactive)
SNB-75
  GI50: 2.8 µM (inactive)
OVCAR-5
  GI50: 2.12 µM (inactive)
HT-29
  GI50: 0.802 µM (active)
SF-539
  GI50: 2.12 µM (inactive)
RPMI-8226
  GI50: 0.508 µM (active)
PC-3
  GI50: 1.76 µM (inactive)
ACHN
  GI50: 1.24 µM (inactive)
HL-60
  GI50: 0.484 µM (active)
T47D
  GI50: 4.89 µM (inactive)
786-0
  GI50: 0.565 µM (active)
NCI/ADR-RES
  GI50: 3.08 µM (inactive)
BT-549
  GI50: 1.3 µM (inactive)
COLO 205
  GI50: 2.11 µM (inactive)
Malme-3M
  GI50: 1.6 µM (inactive)
K562
  GI50: 0.667 µM (active)
NCI-H23
  GI50: 1.94 µM (inactive)
CAKI-1
  GI50: 0.863 µM (active)
CCRF-CEM
  GI50: 0.303 µM (active)
SK-MEL-2
  GI50: 2.13 µM (inactive)
SF-295
  GI50: 5.06 µM (inactive)
RXF 393
  GI50: 1.01 µM (active)
UO-31
  GI50: 1.9 µM (inactive)
MDA-N
  GI50: 1.87 µM (inactive)
SF-268
  GI50: 1.72 µM (inactive)
Hs-578T
  GI50: 1.93 µM (inactive)
SNB-19
  GI50: 3.23 µM (inactive)
OVCAR-3
  GI50: 1.78 µM (inactive)
SK-MEL-28
  GI50: 2.74 µM (inactive)
MDA-MB-231
  GI50: 1.73 µM (inactive)
MCF7
  GI50: 0.893 µM (active)
SR
  GI50: 0.955 µM (active)
UACC-257
  GI50: 1.49 µM (inactive)
NCI-H226
  GI50: 2.08 µM (inactive)
OVCAR-4
  GI50: 2.38 µM (inactive)
SW-620
  GI50: 0.667 µM (active)
NCI-H522
  GI50: 0.497 µM (active)
UACC-62
  GI50: 1.48 µM (inactive)
IGROV-1
  GI50: 1.72 µM (inactive)
MOLT-4
  GI50: 1.75 µM (inactive)
DU-145
  GI50: 3.78 µM (inactive)
KM12
  GI50: 2.59 µM (inactive)
OVCAR-8
  GI50: 2.3 µM (inactive)

— ChEMBL document CHEMBL1201862, “PubChem BioAssay data set” (2004)
